According to US12540131B2 (Merck Sharp & Dohme LLC, priority 2019, dated 2026):

Biological target: GST tagged truncated human mutant G2019S LRRK2 (Homo sapiens (Human), UniProt Q5S007, G2019S)
Assay: LRRK2 Km ATP LanthaScreen Assay
Format: biochemical
Details: G2019S LRRK2, 134 μM ATP (Km ATP), mean values; for IC50: read-out: LRRK2 pIC50 (converted)
Protocol: General Experimental Information: • Unless otherwise noted, all reactions are magnetically stirred. Unless otherwise noted, when diethyl ether is used in the experiments described below, it is Fisher ACS certified material and is stabilized with BHT. Unless otherwise noted, “concentrated” and/or “solvent removed under reduced pressure” means evaporating the solvent from a solution or mixture using a rotary evaporator or vacuum pump. Unless otherwise noted, flash chromatography is carried out on a Teledyne Isco (Lincoln, NE), Analogix (Burlington, WI), or Biotage (Stockholm, SWE) automated chromatography system using a commercially available cartridge as the column. Columns may be purchased from Teledyne Isco, Analogix, Biotage, Varian (Palo Alto, CA), or Supelco (Bellefonte, PA) and are usually filled with silica gel as the stationary phase. Reverse phase prep-HPLC conditions, where used, can be found at the end of each experimental section. Aqueous solutions were concentrated on a Genevac (Ipswich, ENG) or by freeze-drying/lyophilization. Unless otherwise noted, all LRRK2 pIC50 data presented in tables refers to the LRRK2 G2019S Km ATP LanthaScreen™ assay (Life Technologies Corp., Carlsbad, CA) that is described in the Biological Assay section.
The pIC50 values reported herein were measured as follows.
Biological Assay: LRRK2 Km ATP LanthaScreen™ Assay
Compound potency against LRRK2 kinase activity was determined using LanthaScreen™ technology from Life Technologies Corporation (Carlsbad, CA) using a GST20 tagged truncated human mutant G2019S LRRK2 in the presence of the fluorescein-labeled peptide substrate LRRKtide® (LRRK2 phosphorylated ezrin/radixin/moesin (ERM)), also from Life Technologies. The data presented for the Km ATP LanthaScreen™ Assay represents mean IC50 values based on several test results and may have reasonable deviations depending on the specific conditions and reagents used. Km is the Michaelis constant of an enzyme and is defined as the concentration of native substrate (ATP for a kinase) which permits the enzyme to achieve half Vmax (Vmax=rate of reaction when the enzyme is saturated with substrate). IC50 (half-maximal inhibitory concentration) represents the concentration of inhibitor required to inhibit LRRK2 kinase activity by 50%. Assays were performed in the presence of 134 μM ATP (Km ATP). Upon completion, the assay was stopped, and phosphorylated substrate detected with a terbium (Tb)-labeled anti-pERM antibody (cat. no. PV4898). The compound dose response was prepared by diluting a 10 mM stock of compound to a maximum concentration of 9.99 μM in 100% DMSO, followed by custom fold serial dilution in DMSO nine times. 20 nL of each dilution was spotted via a Labcyte Echo onto a 384-well black-sided plate (Corning 3575) followed by 15 μl of a 1.25 nM enzyme solution in 1× assay buffer (50 mM Tris pH 8.5, 10 mM MgCl2, 0.01% Brij-35, 1 mM EGTA, 2 mM dithiothreitol, 0.05 mM sodium orthovanadate). Following a 15-minute incubation period at RT, the kinase reaction was started with the addition of 5 μl of 400 nM fluorescein-labeled LRRKtide® (LRRK2 phosphorylated ezrin/radixin/moesin (ERM)) peptide substrate and 134 μM ATP solution in 1× assay buffer. The reaction was allowed to progress at ambient temperature for 90 minutes. The reaction was then stopped by the addition of 20 μl of TR-FRET Dilution Buffer (Life Technologies, Carlsbad, CA) containing 2 nM Tb-labeled anti-phospho LRRKtide® (LRRK2 phosphorylated ezrin/radixin/moesin (ERM)) antibody and 10 mM EDTA (Life Technologies, Carlsbad, CA). After an incubation period of 1 h at RT, the plate was read on an EnVision® multimode plate reader (Perkin Elmer, Waltham, MA) with an excitation wavelength of 337 nm (Laser) and a reading emission at both 520 and 495 nm. Compound IC50 values were interpolated from nonlinear regression best-fits of the log of the final compound concentration, plotted as a function of the 520/495-nm emission ratio using activity base “Abase”). […]

Chain of GST tagged truncated human mutant G2019S LRRK2 (Q5S007 970-2527 G2019S): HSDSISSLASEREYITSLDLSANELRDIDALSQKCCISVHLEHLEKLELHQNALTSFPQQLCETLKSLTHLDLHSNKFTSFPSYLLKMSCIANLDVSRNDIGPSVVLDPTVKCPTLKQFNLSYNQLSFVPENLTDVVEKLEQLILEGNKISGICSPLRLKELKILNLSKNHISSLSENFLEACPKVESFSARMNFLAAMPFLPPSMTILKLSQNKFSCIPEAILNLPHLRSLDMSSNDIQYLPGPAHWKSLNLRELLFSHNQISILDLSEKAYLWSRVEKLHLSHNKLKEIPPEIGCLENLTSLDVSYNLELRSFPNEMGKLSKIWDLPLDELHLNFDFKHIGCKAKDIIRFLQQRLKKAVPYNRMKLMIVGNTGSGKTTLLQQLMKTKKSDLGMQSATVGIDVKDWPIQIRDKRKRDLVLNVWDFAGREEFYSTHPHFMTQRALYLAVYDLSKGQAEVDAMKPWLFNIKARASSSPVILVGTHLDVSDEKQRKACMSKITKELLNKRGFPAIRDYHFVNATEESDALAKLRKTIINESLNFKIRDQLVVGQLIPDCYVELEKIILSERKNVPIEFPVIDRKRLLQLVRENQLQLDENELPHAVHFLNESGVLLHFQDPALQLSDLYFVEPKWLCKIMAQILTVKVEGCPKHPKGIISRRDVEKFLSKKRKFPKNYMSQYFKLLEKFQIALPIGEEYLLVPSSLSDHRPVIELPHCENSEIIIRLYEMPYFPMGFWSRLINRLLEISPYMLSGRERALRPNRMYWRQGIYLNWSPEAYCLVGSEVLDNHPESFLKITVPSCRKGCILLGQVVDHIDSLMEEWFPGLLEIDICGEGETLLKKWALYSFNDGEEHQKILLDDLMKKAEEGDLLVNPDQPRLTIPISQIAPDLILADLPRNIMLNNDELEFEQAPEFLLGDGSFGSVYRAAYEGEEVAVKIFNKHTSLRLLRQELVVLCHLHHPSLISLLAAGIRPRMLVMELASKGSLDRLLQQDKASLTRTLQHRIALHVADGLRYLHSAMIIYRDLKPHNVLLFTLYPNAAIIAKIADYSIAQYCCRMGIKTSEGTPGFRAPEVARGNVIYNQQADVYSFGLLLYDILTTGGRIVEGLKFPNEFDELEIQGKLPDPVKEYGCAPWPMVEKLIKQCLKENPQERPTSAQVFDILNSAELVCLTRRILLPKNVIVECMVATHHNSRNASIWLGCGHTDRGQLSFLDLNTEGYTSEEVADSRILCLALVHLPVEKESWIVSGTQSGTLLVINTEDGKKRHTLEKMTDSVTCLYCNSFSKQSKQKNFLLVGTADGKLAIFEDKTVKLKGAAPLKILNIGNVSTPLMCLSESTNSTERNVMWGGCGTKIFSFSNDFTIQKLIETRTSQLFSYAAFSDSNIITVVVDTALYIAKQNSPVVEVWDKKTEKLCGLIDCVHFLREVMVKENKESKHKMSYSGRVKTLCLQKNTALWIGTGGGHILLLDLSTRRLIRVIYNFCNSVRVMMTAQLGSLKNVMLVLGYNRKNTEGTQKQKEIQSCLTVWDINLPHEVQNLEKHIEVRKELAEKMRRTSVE

Row | SMILES | IC50 [nM] | LRRK2 pIC50
1 | Cc1c(Nc2ncc3cc(Cl)c(C4CCN(C5(C)COC5)CC4)cc3n2)cnn1C1CCOC1 (single isomer, unassigned) [Ex-2.25, (S) or (R) 6-chloro-7-[1-(3-methyloxetan-3-yl)piperidin-4-yl]-N-[5-methyl-1-(oxolan-3-yl)-1H-pyrazol-4-yl]quinazolin-2-amine] | 0.891 | 
2 | Cc1c(Nc2ncc3cc(Cl)c(C4CCN(C5(C)COC5)CC4)cc3n2)cnn1C1CCOC1 (single isomer, unassigned) [Ex-2.26, (S) or (R) 6-chloro-7-[1-(3-methyloxetan-3-yl)piperidin-4-yl]-N-[5-methyl-1-(oxolan-3-yl)-1H-pyrazol-4-yl]quinazolin-2-amine] | < 0.631 | 
3 | Cc1c(Nc2ncc3cc(Cl)c(C4CCN([C@H]5COC[C@H]5O)CC4)cc3n2)cnn1C12CC(C1)C2 (single isomer, unassigned) [Ex-2.27, (3S,4S) or (3R,4R) 4-[4-(2-{[1-(bicyclo[1.1.1]pentan-1-yl)-5-methyl-1H-pyrazol-4-yl]amino}-6-chloroquinazolin-7-yl)piperidin-1-yl]oxolan-3-ol] |  | 8.87
4 | Cc1c(Nc2ncc3cc(Cl)c(C4CCN([C@@H]5COC[C@@H]5O)CC4)cc3n2)cnn1C12CC(C1)C2 (single isomer, unassigned) [Ex-2.28, (3S,4S) or (3R,4R) 4-[4-(2-{[1-(bicyclo[1.1.1]pentan-1-yl)-5-methyl-1H-pyrazol-4-yl]amino}-6-chloroquinazolin-7-yl)piperidin-1-yl]oxolan-3-ol] |  | >9.20
5 | Cc1c(Nc2ncc3cc(Cl)c(C4CCN(C5(C)COC5)CC4)cc3n2)cnn1C1CC1(F)F (single isomer, unassigned) [Ex-2.29, (S) or (R) 6-chloro-N-[1-(2,2-difluorocyclopropyl)-5-methyl-1H-pyrazol-4-yl]-7-[1-(3-methyloxetan-3-yl)piperidin-4-yl]quinazolin-2-amine] | 1.66 | 
6 | Cc1c(Nc2ncc3cc(Cl)c(C4CCN(C5(C)COC5)CC4)cc3n2)cnn1C1CC1(F)F (single isomer, unassigned) [Ex-2.30, (S) or (R) 6-chloro-N-[1-(2,2-difluorocyclopropyl)-5-methyl-1H-pyrazol-4-yl]-7-[1-(3-methyloxetan-3-yl)piperidin-4-yl]quinazolin-2-amine] | 0.646 | 
7 | Cc1cc2cnc(Nc3cnn(C4CC4(F)F)c3Cl)nc2cc1C1CCN([C@H]2COC[C@H]2O)CC1 (single isomer, unassigned) [Ex-2.33, (R)(3S,4S) or (R)(3R,4R) or (S)(3S,4S) or (S)(3R,4R) 4-[4-(2-{[5-chloro-1-(2,2-difluorocyclopropyl)-1H-pyrazol-4-yl]amino}-6-methylquinazolin-7-yl)piperidin-1-yl]oxolan-3-ol] | < 0.631 | 
8 | C[C@]1(N2CCC(c3cc4nc(Nc5cnn(C67CC(C6)C7)c5)ncc4cc3Cl)CC2)COC[C@H]1O (single isomer, unassigned) [Ex-2.35, (3S,4S) or (3R,4R) 4-[4-(2-{[1-(bicyclo[1.1.1]pentan-1-yl)-1H-pyrazol-4-yl]amino}-6-chloroquinazolin-7-yl)piperidin-1-yl]-4-methyloxolan-3-ol] | 3.89 | 
9 | Cc1cc2cnc(Nc3cnn(C4CC4)c3Cl)nc2cc1C1CCN([C@@]2(C)COC[C@H]2O)CC1 (single isomer, unassigned) [Ex-2.36, (3S,4S) or (3R,4R) 4-(4-{2-[(5-chloro-1-cyclopropyl-1H-pyrazol-4-yl)amino]-6-methylquinazolin-7-yl}piperidin-1-yl)-4-methyloxolan-3-ol] | < 0.631 | 
10 | Cc1cc2cnc(Nc3cnn(C4CC4)c3Cl)nc2cc1C1CCN([C@]2(C)COC[C@@H]2O)CC1 (single isomer, unassigned) [Ex-2.37, (3S,4S) or (3R,4R) 4-(4-{2-[(5-chloro-1-cyclopropyl-1H-pyrazol-4-yl)amino]-6-methylquinazolin-7-yl}piperidin-1-yl)-4-methyloxolan-3-ol] |  | 7.78
11 | Cc1cc2cnc(Nc3cnn(C4CC4)c3C)nc2cc1C1CCN([C@@]2(C)COC[C@H]2O)CC1 (single isomer, unassigned) [Ex-2.38, (3S,4S) or (3R,4R) 4-(4-{2-[(1-cyclopropyl-5-methyl-1H-pyrazol-4-yl)amino]-6-methylquinazolin-7-yl}piperidin-1-yl)-4-methyloxolan-3-ol] |  | >9.20
12 | Cc1cc2cnc(Nc3cnn(C4CC4)c3C)nc2cc1C1CCN([C@]2(C)COC[C@@H]2O)CC1 (single isomer, unassigned) [Ex-2.39, (3S,4S) or (3R,4R) 4-(4-{2-[(1-cyclopropyl-5-methyl-1H-pyrazol-4-yl)amino]-6-methylquinazolin-7-yl}piperidin-1-yl)-4-methyloxolan-3-ol] |  | 8.09
13 | OC1COCC1n1ncc(Nc2ncc3cc(Cl)c(C4CCN(C5COC5)CC4)cc3n2)c1Cl (single isomer, unassigned) [Ex-2.47, (3S,4S) or (3R,4R) or (3S,4R) or (3R,4S) 4-[5-chloro-4-({6-chloro-7-[1-(oxetan-3-yl)piperidin-4-yl]quinazolin-2-yl}amino)-1H-pyrazol-1-yl]oxolan-3-ol] |  | 9.11
14 | Cc1c(Nc2ncc3cc(Cl)c(C4CCN(C5COCC5C#N)CC4)cc3n2)cnn1C1CC1 (single isomer, unassigned) [Ex-2.49, (3S,4S) or (3R,4R) or (3S,4R) or (3R,4S) 4-(4-{6-chloro-2-[(1-cyclopropyl-5-methyl-1H-pyrazol-4-yl)amino]quinazolin-7-yl}piperidin-1-yl)oxolane-3-carbonitrile] |  | 8.88
15 | Cc1c(Nc2ncc3cc(Cl)c(C4CCN(C5COCC5C#N)CC4)cc3n2)cnn1C1CC1 (single isomer, unassigned) [Ex-2.50, (3S,4S) or (3R,4R) or (3S,4R) or (3R,4S) 4-(4-{6-chloro-2-[(1-cyclopropyl-5-methyl-1H-pyrazol-4-yl)amino]quinazolin-7-yl}piperidin-1-yl)oxolane-3-carbonitrile] |  | 9.13
16 | Cc1cc(Nc2ncc3cc(Cl)c(C4CCN([C@H]5COC[C@H]5O)CC4)cc3n2)sn1 (single isomer, unassigned) [Ex-2.55, (3S,4S) or (3R,4R)4-(4-{6-chloro-2-[(3-methyl-l,2-thiazol-5-yl)amino]quinazolin-7-yl}piperidin-1-yl)oxolan-3-ol] |  | >9.20
17 | Cc1c(Nc2ncc3cc(Cl)c(C4CCN([C@@]5(C)COC[C@H]5O)CC4)cc3n2)cnn1C (single isomer, unassigned) [Ex-2.65, (3S,4S) or (3R,4R) 4-(4-{6-chloro-2-[(1,5-dimethyl-1H-pyrazol-4-yl)amino]quinazolin-7-yl}piperidin-1-yl)-4-methyloxolan-3-ol] |  | 7.84
18 | Cn1ncc(Nc2ncc3cc(Cl)c(C4CCN([C@H]5COC[C@H]5O)CC4)cc3n2)c1Cl (single isomer, unassigned) [Ex-2.66, (3S,4S) or (3R,4R) 4-(4-{6-chloro-2-[(5-chloro-1-methyl-1H-pyrazol-4-yl)amino]quinazolin-7-yl}piperidin-1-yl)oxolan-3-ol] |  | >9.20
19 | Cc1c(Nc2ncc3cc(Cl)c(C4CCN([C@H]5COC[C@H]5O)CC4)cc3n2)cnn1C (single isomer, unassigned) [Ex-2.67, (3S,4S) or (3R,4R) 4-(4-{6-chloro-2-[(1,5-dimethyl-1H-pyrazol-4-yl)amino]quinazolin-7-yl}piperidin-1-yl)oxolan-3-ol] |  | >9.20
